Experimental data taken from patent publication US9724337B2, “AG-205 for the treatment of breast cancer” (University of Kentucky Research Foundation, priority 2009, dated 2017).

What was measured:
H157 = assay: AG-205 viability assay in H157 cells; assay type: cell-based; settings: H157, lung, serum-starved, EGFR wild-type
Description: (§1) Proliferation, anchorage-independent growth and migration assays. For growth curves, cells were plated in 24 well dishes and grown in 10% serum-containing medium. At various times, the cells were harvested with trypsin and fixed with formaldehyde added to a final concentration of 3.7%. Following the harvest of the final time point, the cells from each time point were counted using a Bright-line hemocytometer (Hausser Scientific).
(§2) MTT viability assays were performed as described previously. Briefly, cells were plated in 96-well tissue culture dishes and grown in various media with different drug doses. The cells were then incubated with 0.5 mg/ml of 3-[4,5-dimethylthiazol-2-y]-2,5-diphenyltetrazolium bromide for 1.5 hours, at which time the media was removed, the precipitated crystals were dissolved in dimethyl sulfoxide, and the absorbance at 590 nm was measured using a Bio-Tek μQuant spectrophotometer.

HCC827 = assay: AG-205 viability assay in HCC827 cells; assay type: cell-based
Description: (§3) Tissue culture. MDA-MB-468 cells were a kind gift from Dr. Rina Plattner of the University of Kentucky and were maintained in medium consisting of Dulbecco's Modified Eagle Medium containing 10% serum supreme (Fisher) and antibiotics. Cells were grown at 37° C. in 5% CO2 in air. A549 and HCC827 lung cancer cells, as well as SK-Br-3 breast cancer cells were obtained from the ATCC (American Type Culture Collection) and were grown under the same conditions. The H1650 lung cancer cell line was a kind gift from Dr. Heinz Kohler of the University of Kentucky. The Pgrmc1 ligand AG-205 was purchased from Timtec, Inc. The EGFR inhibitor AG1478 was from Biomol, Inc. and was used at a concentration range of 0.8-40 μM.
as §1, with “At various times, the cells were harvested with trypsin and fixed with formaldehyde added to a final concentration of 3.7%.” left out
as §2, with “Briefly, cells were plated in 96-well tissue culture dishes and grown in various media with different drug doses.” left out

ku70 [1] = assay: Western blot of ku70 levels in MDA-MB-468 cells; assay type: cell-based, human; settings: AG-205 treatment
Description: (§4) Panel A is a diagram indicating the positions of the siRNA molecules targeting Pgrmc1. Exons 1, 2 and 3 are indicated by “ex”. MDA-MB-468 cells were transfected with a control siRNA (siCON, lanes 1 and 3) or two separate siRNAs targeting Pgrmc1 (siPGR and siPGR2, lanes 2 and 4, respectively). In panels B-E and H-L, protein levels were analyzed by western blot for EGFR (B), phospho-tyrosine (C), Pgrmc1 (D) and ku70 (E), as a control for protein loading. Panels F—H show western blot analyses for (F) IGF-1R, (G) c-Kit and (H) tfR. In panels I and J, transcript levels were analyzed by reverse transcriptase-PCR for EGFR (I) and Pgrmc1 (J). The top band indicates the gene of interest, while actin primers were included in the same reaction as a control for cDNA loading. […] In panels K-L, MDA-MB-468 cells were treated with increasing doses of the Pgrmc1 ligand AG-205. Protein expression was analyzed by western blot for EGFR (K) and ku70 (L). Cells were treated with 0 (lanes 1), 2 (lanes 2), 10 (lanes 3) or 50 (lanes 4) μM AG-205 for 24 hours in serum-free medium. In panels M-N, A549 cells were treated with the same doses and analyzed for EGFR (M) and ku70 (N). […] Expression analyses were repeated at least in duplicate throughout.
(§5) Immunological techniques. […]

Pgrmc1 = Pgrmc1 (Homo sapiens, UniProt O00264); assay: Western blot of Pgrmc1 in A549 cells; assay type: cell-based; design: endogenous in cells; host or cells: A549 cells; settings: A549 cells, 2, 10 or 50 μM for 24 hours
Sequence of Pgrmc1 (O00264 whole entry): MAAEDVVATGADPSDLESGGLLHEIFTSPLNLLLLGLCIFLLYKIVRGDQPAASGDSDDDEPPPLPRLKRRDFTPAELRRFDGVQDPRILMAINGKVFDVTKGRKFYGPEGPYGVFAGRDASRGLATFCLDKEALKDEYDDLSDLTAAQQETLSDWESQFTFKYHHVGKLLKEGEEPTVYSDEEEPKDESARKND
Description: (A) Graph of triplicate FACS analysis. […] (B) Protein expression was analyzed by western blot for Pgrmc1 (top) and ku70 (bottom). Cells were treated with 0 (lanes 1), 2 (lanes 2), 10 (lanes 3) or 50 (lanes 4) μM AG-205 for 24 hours. […] (C-D) The panels show western blots of phosphorylated ERK1/2 (upper panels) and total ERK1/2 (lower panels) The lanes in panel C are A549/con (lane 1), A549/RNAi (lane 2), A549/LacZ (lane 3) and A549/PGR-hbd cells (lane 4) following 48 hours serum starvation. The cells infected with adenovirus were similar to those described in FIG. 3, panels C and D. In panel D, A549 cells were treated with vehicle (lane 1) or 20 μM AG-205 (lane 2) for 24 hours in serum-free media. (E) A549/con (solid line) or A549/RNAi (dashed line) cells were treated with increasing doses of AG-205 for 72 hours and viability was measured by counting, and “% viability” refers to the cell number relative to the untreated control. (F) Cells expressing LacZ (solid line) or the Pgrmc1-hbd heme binding-deficient mutant (dashed line), were treated with increasing doses of AG-205. […] Percent viability was determined by cell counting, and “% viability” refers to the cell number relative to the untreated control. For each experiment, the results are representative of experiments performed at least in duplicate.
as §5

ku70 [2] = assay: Western blot of ku70 in A549 cells; assay type: cell-based, human
Description: as §4, §5

[3] = system: cancer cell lines from lung, breast, colon and prostate tissues; assay: Toxicity to multiple cancer cell lines; assay type: cell-based; settings: most active when serum is absent
MDA-MB-468 cells = assay: Viability / proliferation of MDA-MB-468 cells; assay type: cell-based, human
Description: as §3, §1, §2

EGFR = assay: Western blot of EGFR levels in A549 cells; assay type: cell-based, human
Description: as §4, §5

Pgrmc1-heme complex = Pgrmc1-heme complex (Homo sapiens, UniProt O00264); assay: Spectroscopic scan of purified Pgrmc1 with AG-205; assay type: binding; settings: AG-205 added to purified Pgrmc1, spectroscopic scan
Sequence of Pgrmc1-heme complex (O00264 whole entry, one chain of several): as the sequence (O00264 whole entry) above
Description: (A) Pgrmc1 (SEQ ID NO: 7) shares homology with AtMAPR2 (SEQ ID NO: 8) (underlined residues), which was the target for a screen for small molecule ligands. The putative heme-binding Tyr106 and Tyr112 are indicated with black boxes. (B) The molecular structure of AG-205 includes multiple aromatic components. (C) Spectroscopic scan of Pgrmc1 with vehicle control compared with vehicle plus 50 µM AG-205. The decrease in relative absorbance at 400 nm is consistent with an AG-205-induced change in the spectral properties of Pgrmc1-heme. The scan is representative of four separate scans using different Pgrmc1 protein preparations. The lower scan is a comparison of purified Pgrmc1 without and with the vehicle control (DMSO). Panels D (A549 cells) and E (MDA-MB-231 cells) are viability assays of cells maintained in 0.1% serum (solid line) or 10% serum (dashed line) and treated with increasing doses of AG-205. Percent viability was determined by cell counting, and “% viability” refers to the cell number relative to the untreated control.

AtMAPR2 = target: T1, AtMAPR2 (Arabidopsis thaliana, UniProt Q9SK39); settings: in silico screen then binding assay, 2005; cited from earlier work
T1 sequence (Q9SK39 1-100): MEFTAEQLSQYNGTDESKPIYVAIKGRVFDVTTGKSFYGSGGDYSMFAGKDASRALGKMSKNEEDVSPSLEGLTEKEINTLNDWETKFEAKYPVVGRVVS

[4] = system: polyADP ribose polymerase (PARP) or caspase 3; assay: Cleavage of PARP or caspase 3 in AG-205-treated cancer cells; assay type: cell-based, human; settings: AG-205-treated cells losing viability
Description: (§6) Immunological techniques. Cells were extracted in RIPA buffer (50 mM Tris, pH 8.0, 1% Nonidet P-40, 150 mM NaCl, 0.5% sodium deoxycholate, 0.1% sodium dodecyl sulfate, 1 mM phenylmethylsulfonyl fluoride, 10 μg/ml of aprotinin, leupeptin and pepstatin) for standard western blotting. The antibodies used in the study were anti-caveolin-1 (N-20, Santa Cruz Biologicals, # sc-894), anti-EGFR (1005, Santa Cruz, # sc-03), anti-ku70 (A-9, Santa Cruz # sc-5309), anti-Met (C-12, Santa Cruz # sc-10), anti-PARP (H-250, Santa Cruz # sc-7150), anti-phosphotyrosine (P-Tyr-100, Cell Signaling), anti-Pgrmc1 (Novus Biologics) and anti-tubulin (Neomarkers). Some western blots for Pgrmc1 were performed with a polyclonal antibody called anti-PGR-UK1 which was raised in rabbits to an internal 10 amino acid peptide.

focal adhesion kinase = assay: Western blot of focal adhesion kinase in A549 cells; assay type: cell-based, human
Description: as §6

A431 = assay: AG-205 viability assay in A431 cells; assay type: cell-based; settings: A431, epitheloid, serum-starved, EGFR wild-type

Compound: Cc1ccc2c(c1)[C@H]1CN(C)CC[C@H]1N2C(=O)CSc1nnnn1-c1ccc(Cl)cc1 [AG-205]
- IC50 (H157): 10 µM
- IC50 (HCC827; HCC827, lung, serum-starved, EGFR ΔE746-A750): > 100 µM
- sensitivity to growth inhibition (HCC827; HCC827 cells, ΔE746-A750 EGFR): relatively insensitive
- Ku70 levels (ku70 [1]): not affected
- Pgrmc1 expression (Pgrmc1): increases Pgrmc1 expression
- ku70 levels (ku70 [2]): unaffected
- toxicity to cancer cell lines [3]: toxic to multiple cancer cell lines
- IC50 (MDA-MB-468 cells; MDA-MB-468, breast, serum-starved, EGFR wild-type, read-out: IC50 values for AG-205, Serum-starved): 12 µM
- cell viability (MDA-MB-468 cells; MDA-MB-468 cells, 20 μM dose, 72-96 hours after treatment): marked loss of viability
- viability under normal culture conditions (MDA-MB-468 cells; MDA-MB-468 cells, ligand abundant (10% serum)): slight increase in viability
- cell growth inhibition (MDA-MB-468 cells; MDA-MB-468 cells, wild-type EGFR): efficiently inhibited cell growth
- growth inhibitory activity depending on culture conditions (MDA-MB-468 cells; low serum versus 10% serum, P=0.0006 for MDA-MB-468 at 20 μM): killing cells grown in low serum conditions but not 10% serum
- dose with optimal EGFR de-stabilizing activity (EGFR): 20 to 50 µM
- EGFR stability (EGFR; increasing doses): de-stabilized EGFR in a dose-dependent manner
- change in absorbance of purified Pgrmc1 (Pgrmc1-heme complex): shift in absorbance at approximately 400 nm
- binding to At Pgrmc1 (AtMAPR2) (AtMAPR2): bind to At Pgrmc1
- cleavage of PARP or caspase 3 [4]: did not detect an increase
- stability of focal adhesion kinase (focal adhesion kinase): little effect
- IC50 (A431): 8 µM
